What was measured:
Experiment in all cases: Kinome scan
Type in all cases: binding
PRKCE = target: T1, PRKCE (Homo sapiens, UniProt Q02156); settings: 1000 nM
T1 construct: purchased Eurofins DiscoverX Corporation
Method: (§1) The kinome scan assays were carried out at Eurofins DiscoverX Corporation. For kinome scan profiling of compound 1g, it was screened at 1μM against 96 kinases (N = 2 independent experiments). The results for binding interactions are reported as % inhibition, where higher values indicate strong affinity; see the Supporting Information, Table S1 for full kinome profile.

MKNK1 = target: T2, MKNK1 (Homo sapiens, UniProt Q9BUB5); settings: 1000 nM
T2 construct: purchased Eurofins DiscoverX Corporation
Method: as §1

FLT3 = target: T3, FLT3 (Homo sapiens, UniProt P36888); settings: 1000 nM
T3 construct: purchased Eurofins DiscoverX Corporation
Method: as §1

PLK1 = target: T4, PLK1 (Homo sapiens, UniProt P53350); settings: 1000 nM
T4 construct: purchased Eurofins DiscoverX Corporation
Method: as §1

[1] = target: T5, JAK2(JH1domain-catalytic) (Homo sapiens, UniProt O60674); settings: 1000 nM
T5 construct: JAK2(JH1domain-catalytic); purchased Eurofins DiscoverX Corporation
Method: as §1

CDK2 = target: T6, CDK2 (Homo sapiens, UniProt P24941); settings: 1000 nM
T6 construct: purchased Eurofins DiscoverX Corporation
Method: as §1

VEGFR2 = target: T7, VEGFR2 (Homo sapiens, UniProt P35968); settings: 1000 nM
T7 construct: purchased Eurofins DiscoverX Corporation
Method: as §1

ERK1 = target: T8, ERK1 (Homo sapiens, UniProt P27361); settings: 1000 nM
T8 construct: purchased Eurofins DiscoverX Corporation
T8 sequence (P27361 whole entry): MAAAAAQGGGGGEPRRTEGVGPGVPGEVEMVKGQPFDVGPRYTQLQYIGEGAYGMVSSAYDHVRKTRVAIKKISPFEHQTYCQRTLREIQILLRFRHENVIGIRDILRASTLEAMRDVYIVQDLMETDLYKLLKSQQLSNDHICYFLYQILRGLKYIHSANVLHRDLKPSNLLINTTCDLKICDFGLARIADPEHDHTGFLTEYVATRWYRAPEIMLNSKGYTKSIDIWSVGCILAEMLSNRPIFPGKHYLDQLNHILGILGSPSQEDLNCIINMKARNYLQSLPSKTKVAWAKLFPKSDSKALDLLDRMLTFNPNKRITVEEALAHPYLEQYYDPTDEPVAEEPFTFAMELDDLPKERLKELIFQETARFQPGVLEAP
Method: as §1

ERBB2 = target: T9, ERBB2 (Homo sapiens, UniProt P04626); settings: 1000 nM
T9 construct: purchased Eurofins DiscoverX Corporation
Method: as §1

BMPR2 = target: T10, BMPR2 (Homo sapiens, UniProt Q13873); settings: 1000 nM
T10 construct: purchased Eurofins DiscoverX Corporation
Method: as §1

MLK1 = target: T11, MLK1 (Homo sapiens, UniProt P80192); settings: 1000 nM
T11 construct: purchased Eurofins DiscoverX Corporation
Method: as §1

EGFR = target: T12, EGFR (Homo sapiens, UniProt P00533); settings: 1000 nM
T12 construct: purchased Eurofins DiscoverX Corporation
Method: as §1

AKT1 = target: T13, AKT1 (Homo sapiens, UniProt P31749); settings: 1000 nM
T13 construct: purchased Eurofins DiscoverX Corporation
Method: as §1

RAF1 = target: T14, RAF1 (Homo sapiens, UniProt P04049); settings: 1000 nM
T14 construct: purchased Eurofins DiscoverX Corporation
Method: as §1

IGF1R = target: T15, IGF1R (Homo sapiens, UniProt P08069); settings: 1000 nM
T15 construct: purchased Eurofins DiscoverX Corporation
Method: as §1

DYRK1B = target: T16, DYRK1B (Homo sapiens, UniProt Q9Y463)
T16 construct: purchased Eurofins DiscoverX Corporation
T16 sequence (Q9Y463 whole entry): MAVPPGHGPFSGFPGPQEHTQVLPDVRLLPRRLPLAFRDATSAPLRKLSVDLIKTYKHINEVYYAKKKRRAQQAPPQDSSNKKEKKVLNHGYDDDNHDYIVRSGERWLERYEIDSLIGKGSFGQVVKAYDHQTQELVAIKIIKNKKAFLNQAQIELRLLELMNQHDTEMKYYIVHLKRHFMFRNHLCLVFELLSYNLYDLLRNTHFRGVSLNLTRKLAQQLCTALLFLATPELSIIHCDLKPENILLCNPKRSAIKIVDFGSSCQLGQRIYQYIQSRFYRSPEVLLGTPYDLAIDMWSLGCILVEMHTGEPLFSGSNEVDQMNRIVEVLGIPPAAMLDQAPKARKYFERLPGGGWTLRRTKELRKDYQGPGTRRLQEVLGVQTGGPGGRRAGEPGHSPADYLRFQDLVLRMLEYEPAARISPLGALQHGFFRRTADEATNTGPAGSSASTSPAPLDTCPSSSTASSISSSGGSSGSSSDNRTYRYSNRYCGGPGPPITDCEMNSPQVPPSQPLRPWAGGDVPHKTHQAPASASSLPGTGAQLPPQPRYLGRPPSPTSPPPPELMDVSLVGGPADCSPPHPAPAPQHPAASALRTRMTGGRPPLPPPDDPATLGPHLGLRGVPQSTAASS
Method: as §1

JNK2 = target: T17, JNK2 (Homo sapiens, UniProt P45984); settings: 1000 nM
T17 construct: purchased Eurofins DiscoverX Corporation
Method: as §1

[2] = target: T18, TYK2(JH1domain-catalytic) (Homo sapiens, UniProt P29597); settings: 1000 nM
T18 construct: TYK2(JH1domain-catalytic); purchased Eurofins DiscoverX Corporation
Method: as §1

PAK2 = target: T19, PAK2 (Homo sapiens, UniProt Q13177); settings: 1000 nM
T19 construct: purchased Eurofins DiscoverX Corporation
Method: as §1

MKNK2 = target: T20, MKNK2 (Homo sapiens, UniProt Q9HBH9); settings: 1000 nM
T20 construct: purchased Eurofins DiscoverX Corporation
Method: as §1

p38-alpha = target: T21, p38-alpha (Homo sapiens, UniProt Q16539); settings: 1000 nM
T21 construct: purchased Eurofins DiscoverX Corporation
Method: as §1

ABL1-phosphorylated = target: T22, ABL1-phosphorylated (Homo sapiens, UniProt P00519); settings: 1000 nM
T22 construct: purchased Eurofins DiscoverX Corporation
T22 sequence (P00519 whole entry): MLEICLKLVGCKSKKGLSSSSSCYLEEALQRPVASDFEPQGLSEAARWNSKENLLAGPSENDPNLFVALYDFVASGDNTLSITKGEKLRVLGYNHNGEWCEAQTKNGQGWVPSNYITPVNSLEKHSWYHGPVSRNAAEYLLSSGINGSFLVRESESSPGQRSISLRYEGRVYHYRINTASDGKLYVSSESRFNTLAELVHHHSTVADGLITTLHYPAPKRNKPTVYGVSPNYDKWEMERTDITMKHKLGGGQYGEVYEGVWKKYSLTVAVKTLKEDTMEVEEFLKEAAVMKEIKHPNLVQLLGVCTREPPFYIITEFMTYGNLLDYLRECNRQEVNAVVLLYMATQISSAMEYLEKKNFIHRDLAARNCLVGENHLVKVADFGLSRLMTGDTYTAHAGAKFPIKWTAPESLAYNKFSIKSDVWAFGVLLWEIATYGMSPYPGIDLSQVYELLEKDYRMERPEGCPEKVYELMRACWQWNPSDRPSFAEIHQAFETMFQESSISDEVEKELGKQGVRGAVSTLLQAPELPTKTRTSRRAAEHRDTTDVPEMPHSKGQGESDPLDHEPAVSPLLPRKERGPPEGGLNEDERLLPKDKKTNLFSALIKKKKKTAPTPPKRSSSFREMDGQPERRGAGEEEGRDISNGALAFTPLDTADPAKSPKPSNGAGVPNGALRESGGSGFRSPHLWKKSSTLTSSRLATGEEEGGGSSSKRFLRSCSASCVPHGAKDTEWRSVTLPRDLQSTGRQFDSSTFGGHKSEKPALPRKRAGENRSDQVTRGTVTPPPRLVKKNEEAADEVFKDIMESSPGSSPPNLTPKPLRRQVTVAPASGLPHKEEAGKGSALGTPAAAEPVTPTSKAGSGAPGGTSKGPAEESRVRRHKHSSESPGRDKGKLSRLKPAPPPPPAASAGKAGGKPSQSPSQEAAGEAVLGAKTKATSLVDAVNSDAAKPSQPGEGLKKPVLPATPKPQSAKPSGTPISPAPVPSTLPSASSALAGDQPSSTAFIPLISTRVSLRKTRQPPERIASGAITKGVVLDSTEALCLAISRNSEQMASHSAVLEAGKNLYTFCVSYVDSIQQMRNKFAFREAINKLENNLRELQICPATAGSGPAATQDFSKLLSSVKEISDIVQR
Method: as §1

ACVR1B = target: T23, ACVR1B (Homo sapiens, UniProt P36896); settings: 1000 nM
T23 construct: purchased Eurofins DiscoverX Corporation
Method: as §1

[3] = target: T24, JAK3(JH1domain-catalytic) (Homo sapiens, UniProt P52333); settings: 1000 nM
T24 construct: JAK3(JH1domain-catalytic); purchased Eurofins DiscoverX Corporation
Method: as §1

PLK3 = target: T25, PLK3 (Homo sapiens, UniProt Q9H4B4); settings: 1000 nM
T25 construct: purchased Eurofins DiscoverX Corporation
Method: as §1

PCTK1 = target: T26, PCTK1 (Homo sapiens, UniProt Q00536); settings: 1000 nM
T26 construct: purchased Eurofins DiscoverX Corporation
Method: as §1

MET = target: T27, MET (Homo sapiens, UniProt P08581); settings: 1000 nM
T27 construct: purchased Eurofins DiscoverX Corporation
T27 sequence (P08581 25-1390): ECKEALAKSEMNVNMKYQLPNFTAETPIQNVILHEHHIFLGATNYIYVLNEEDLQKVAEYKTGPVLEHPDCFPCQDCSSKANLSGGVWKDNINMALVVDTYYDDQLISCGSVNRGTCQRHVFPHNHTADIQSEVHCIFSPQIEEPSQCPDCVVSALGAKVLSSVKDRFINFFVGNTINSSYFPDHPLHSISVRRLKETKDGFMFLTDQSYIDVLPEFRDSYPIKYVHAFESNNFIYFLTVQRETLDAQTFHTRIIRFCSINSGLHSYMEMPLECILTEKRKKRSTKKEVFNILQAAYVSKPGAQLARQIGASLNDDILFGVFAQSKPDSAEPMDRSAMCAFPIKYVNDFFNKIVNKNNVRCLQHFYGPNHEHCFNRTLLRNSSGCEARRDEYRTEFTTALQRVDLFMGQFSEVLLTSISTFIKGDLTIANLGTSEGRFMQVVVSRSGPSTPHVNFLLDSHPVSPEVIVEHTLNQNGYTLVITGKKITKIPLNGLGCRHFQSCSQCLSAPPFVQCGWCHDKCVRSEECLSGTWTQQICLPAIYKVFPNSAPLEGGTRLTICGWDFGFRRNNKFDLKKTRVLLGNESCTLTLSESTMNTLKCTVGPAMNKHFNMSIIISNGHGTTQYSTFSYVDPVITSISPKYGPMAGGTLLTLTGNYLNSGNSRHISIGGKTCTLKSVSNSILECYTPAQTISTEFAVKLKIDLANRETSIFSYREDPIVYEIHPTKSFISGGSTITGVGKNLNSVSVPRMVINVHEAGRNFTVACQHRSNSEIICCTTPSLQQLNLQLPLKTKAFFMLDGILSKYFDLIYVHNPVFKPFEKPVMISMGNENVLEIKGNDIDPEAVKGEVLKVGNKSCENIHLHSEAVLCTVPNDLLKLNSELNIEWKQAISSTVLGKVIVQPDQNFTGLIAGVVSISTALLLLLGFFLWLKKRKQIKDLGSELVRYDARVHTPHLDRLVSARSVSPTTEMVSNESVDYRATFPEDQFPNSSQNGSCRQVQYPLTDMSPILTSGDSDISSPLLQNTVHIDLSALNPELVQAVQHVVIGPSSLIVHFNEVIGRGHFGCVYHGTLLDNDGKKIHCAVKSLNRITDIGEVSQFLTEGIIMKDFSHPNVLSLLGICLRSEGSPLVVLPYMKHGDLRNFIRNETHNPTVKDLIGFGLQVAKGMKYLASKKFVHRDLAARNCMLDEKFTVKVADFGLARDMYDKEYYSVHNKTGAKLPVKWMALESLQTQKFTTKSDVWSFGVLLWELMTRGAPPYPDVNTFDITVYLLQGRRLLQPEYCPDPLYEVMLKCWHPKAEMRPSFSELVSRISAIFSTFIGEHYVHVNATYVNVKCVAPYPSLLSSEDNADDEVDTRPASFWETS
Method: as §1

JNK3 = target: T28, JNK3 (Homo sapiens, UniProt P53779); settings: 1000 nM
T28 construct: purchased Eurofins DiscoverX Corporation
Method: as §1

EGFR(L858R) = target: T29, EGFR(L858R) (Homo sapiens, UniProt P00533, L858R); settings: 1000 nM
T29 construct: purchased Eurofins DiscoverX Corporation
Method: as §1

CHEK1 = target: T30, CHEK1 (Homo sapiens, UniProt O14757); settings: 1000 nM
T30 construct: purchased Eurofins DiscoverX Corporation
Method: as §1

DCAMKL1 = target: T31, DCAMKL1 (Homo sapiens, UniProt O15075); settings: 1000 nM
T31 construct: purchased Eurofins DiscoverX Corporation
Method: as §1

PIM2 = target: T32, PIM2 (Homo sapiens, UniProt Q9P1W9); settings: 1000 nM
T32 construct: purchased Eurofins DiscoverX Corporation
T32 sequence (Q9P1W9 whole entry): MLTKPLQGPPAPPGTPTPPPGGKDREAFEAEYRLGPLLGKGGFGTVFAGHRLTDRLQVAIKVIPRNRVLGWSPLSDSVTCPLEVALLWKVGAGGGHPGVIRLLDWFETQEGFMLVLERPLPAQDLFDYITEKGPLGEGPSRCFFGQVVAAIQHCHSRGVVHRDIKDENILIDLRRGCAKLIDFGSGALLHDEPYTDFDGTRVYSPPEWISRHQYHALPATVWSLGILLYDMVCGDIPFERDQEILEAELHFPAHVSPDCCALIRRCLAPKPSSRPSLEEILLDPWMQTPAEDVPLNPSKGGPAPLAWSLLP
Method: as §1

TIE2 = target: T33, TIE2 (Homo sapiens, UniProt Q02763); settings: 1000 nM
T33 construct: purchased Eurofins DiscoverX Corporation
Method: as §1

JNK1 = target: T34, JNK1 (Homo sapiens, UniProt P45983); settings: 1000 nM
T34 construct: purchased Eurofins DiscoverX Corporation
Method: as §1

[4] = target: T35, ABL1(E255K)-phosphorylated (Homo sapiens, UniProt P00519, E255K); settings: 1000 nM
T35 construct: purchased Eurofins DiscoverX Corporation
T35 sequence (P00519 whole entry E255K): as the sequence (P00519 whole entry) above, with E255K counted along it
Method: as §1

PIK3CG = target: T36, PIK3CG (Homo sapiens, UniProt P48736); settings: 1000 nM
T36 construct: purchased Eurofins DiscoverX Corporation
T36 sequence (P48736 whole entry): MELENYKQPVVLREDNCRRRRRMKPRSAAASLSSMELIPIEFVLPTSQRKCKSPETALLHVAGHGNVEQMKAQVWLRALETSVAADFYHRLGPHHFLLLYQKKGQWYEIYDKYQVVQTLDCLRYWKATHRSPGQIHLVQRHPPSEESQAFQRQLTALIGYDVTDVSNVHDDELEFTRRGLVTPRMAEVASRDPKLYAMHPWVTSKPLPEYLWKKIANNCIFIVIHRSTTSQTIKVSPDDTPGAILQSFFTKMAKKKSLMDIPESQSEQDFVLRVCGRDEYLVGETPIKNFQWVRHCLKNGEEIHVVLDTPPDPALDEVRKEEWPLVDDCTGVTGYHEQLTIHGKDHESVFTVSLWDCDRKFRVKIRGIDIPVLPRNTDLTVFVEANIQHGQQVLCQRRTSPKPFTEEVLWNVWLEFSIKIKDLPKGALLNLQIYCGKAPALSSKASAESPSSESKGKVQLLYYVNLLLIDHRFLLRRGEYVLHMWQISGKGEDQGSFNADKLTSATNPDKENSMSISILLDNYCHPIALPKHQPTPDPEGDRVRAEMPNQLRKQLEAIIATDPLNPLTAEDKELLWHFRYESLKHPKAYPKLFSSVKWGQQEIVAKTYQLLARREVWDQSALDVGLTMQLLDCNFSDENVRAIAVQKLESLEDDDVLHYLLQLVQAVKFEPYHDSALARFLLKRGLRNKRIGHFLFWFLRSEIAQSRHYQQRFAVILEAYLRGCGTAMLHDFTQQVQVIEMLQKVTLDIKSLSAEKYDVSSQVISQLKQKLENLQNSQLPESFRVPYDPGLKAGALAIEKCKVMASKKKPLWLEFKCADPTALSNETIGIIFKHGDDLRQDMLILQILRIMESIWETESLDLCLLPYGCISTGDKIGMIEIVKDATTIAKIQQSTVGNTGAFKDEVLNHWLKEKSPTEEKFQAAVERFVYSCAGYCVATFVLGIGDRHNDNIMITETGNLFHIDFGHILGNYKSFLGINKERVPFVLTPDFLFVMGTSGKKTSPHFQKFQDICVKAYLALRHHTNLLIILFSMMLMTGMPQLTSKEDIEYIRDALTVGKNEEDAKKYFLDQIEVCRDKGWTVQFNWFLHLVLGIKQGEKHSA
Method: as §1

MAP3K4 = target: T37, MAP3K4 (Homo sapiens, UniProt Q9Y6R4); settings: 1000 nM
T37 construct: purchased Eurofins DiscoverX Corporation
Method: as §1

PDGFRB = target: T38, PDGFRB (Homo sapiens, UniProt P09619); settings: 1000 nM
T38 construct: purchased Eurofins DiscoverX Corporation
Method: as §1

PAK1 = target: T39, PAK1 (Homo sapiens, UniProt Q13153); settings: 1000 nM
T39 construct: purchased Eurofins DiscoverX Corporation
Method: as §1

TGFBR1 = target: T40, TGFBR1 (Homo sapiens, UniProt P36897); settings: 1000 nM
T40 construct: purchased Eurofins DiscoverX Corporation
Method: as §1

FGFR2 = target: T41, FGFR2 (Homo sapiens, UniProt P21802); settings: 1000 nM
T41 construct: purchased Eurofins DiscoverX Corporation
Method: as §1

Compound: C#Cc1cn([C@@H]2S[C@H](CO)[C@@H](O)[C@H]2O)c2ncnc(N)c12 [Compound 1g, (2R,3R,4S,5R)-2-(4-Amino-5-ethynyl-7H-pyrrolo[2,3-d]pyrimidin-7-yl)-5-(hydroxymethyl)tetrahydrothiophene-3,4-diol]
- inhibition at 1 µM (PRKCE): 0%
- inhibition at 1 µM (MKNK1): 0%
- inhibition at 1 µM (FLT3): 27%
- inhibition at 1 µM (PLK1): 0%
- inhibition at 1 µM [1]: 35%
- inhibition at 1 µM (CDK2): 9%
- inhibition at 1 µM (VEGFR2): 30%
- inhibition at 1 µM (ERK1): 4%
- inhibition at 1 µM (ERBB2): 15%
- inhibition at 1 µM (BMPR2): 1%
- inhibition at 1 µM (MLK1): 7%
- inhibition at 1 µM (EGFR): 0%
- inhibition at 1 µM (AKT1): 7%
- inhibition at 1 µM (RAF1): 8%
- inhibition at 1 µM (IGF1R): 7%
- remaining binding at 1 µM (DYRK1B; 1 μM): < 20%
- inhibition at 1 µM (DYRK1B; 1000 nM, DYRK1B): 83%
- inhibition at 1 µM (JNK2): 0%
- inhibition at 1 µM [2]: 70%
- inhibition at 1 µM (PAK2): 44%
- inhibition at 1 µM (MKNK2): 62%
- inhibition at 1 µM (p38-alpha): 11%
- inhibition at 1 µM (ABL1-phosphorylated): 35%
- inhibition at 1 µM (ACVR1B): 29%
- inhibition at 1 µM [3]: 0%
- inhibition at 1 µM (PLK3): 0%
- inhibition at 1 µM (PCTK1): 0%
- inhibition at 1 µM (MET): 4%
- inhibition at 1 µM (JNK3): 13%
- inhibition at 1 µM (EGFR(L858R)): 0%
- inhibition at 1 µM (CHEK1): 0%
- inhibition at 1 µM (DCAMKL1): 6%
- inhibition at 1 µM (PIM2): 3%
- inhibition at 1 µM (TIE2): 6%
- inhibition at 1 µM (JNK1): 17%
- inhibition at 1 µM [4]: 18%
- inhibition at 1 µM (PIK3CG): 0%
- inhibition at 1 µM (MAP3K4): 29%
- inhibition at 1 µM (PDGFRB): 8%
- inhibition at 1 µM (PAK1): 18%
- inhibition at 1 µM (TGFBR1): 11%
- inhibition at 1 µM (FGFR2): 12%

From PMC8708872, “Discovery of a Novel Template, 7-Substituted 7-Deaza-4′-Thioadenosine Derivatives as Multi-Kinase Inhibitors” (Pharmaceuticals, 2021)
